Laboratory results taken from PubChem BioAssay AID1963982 (Molecular Pharmacology Branch, DTP, NCI, 2024).
Values joined by “and” are separate entries in the source; they are usually repeats but may differ in a detail not shown here. Equal entries are not always repeated.

Test system: 313798-341-R-J2-PDC spheroids, viability
Experiment: Anticancer human tumor 313798-341-R-J2-PDC patient-derived cervical squamous cell carcinoma cell line growth inhibition [PI3K]
Settings: spheroids with HUVEC and MSC; for viability, T/C: stronger effect = lower value; active = viability on the fitted dose curve at most 10% of control; inactive = the rest
Summary of the method: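 High-throughput combination screen: PI3K inhibitors crossed with targeted small molecules on complex spheroids of tumor cells, HUVEC and MSCs at 37 degrees C, 5% CO2. Top concentration was at or near clinical Cmax (otherwise 10 microM), with half-log decrements.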

[1] = curve of first compound, second compound 0.0316 µM
[2] = curve of first compound, second compound 0.1 µM
[3] = curve of first compound, second compound 0.316 µM
[4] = curve of first compound, second compound 1 µM
[5] = second compound 0.0316 µM, first compound 0.0316 µM
[6] = second compound 0.0316 µM, first compound 0.1 µM
[7] = second compound 0.1 µM, first compound 0.0316 µM
[8] = second compound 0.1 µM, first compound 0.1 µM
[9] = second compound 0.316 µM, first compound 0.0316 µM
[10] = second compound 0.316 µM, first compound 0.1 µM
[11] = second compound 1 µM, first compound 0.0316 µM
[12] = second compound 1 µM, first compound 0.1 µM
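Also: spheroids exposed to compounds for seven days.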
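For viability, T/C in this document: 100% = DMSO vehicle control viability.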

CC(C)n1nc(-c2ccc3oc(N)nc3c2)c2c(N)ncnc21 + Cc1nc(NC(=O)N2CCCC2C(N)=O)sc1-c1ccnc(C(C)(C)C(F)(F)F)c1
4.22 nM: IC50 (curve of first compound, second compound 3.16 µM)
46.6 nM: IC50 [3]
< 0.316 nM: IC50 (curve of first compound, second compound 10 µM)
59 nM: IC50 [1]
25.5 nM: IC50 [4]
inactive: viability, T/C (second compound 0.0316 µM, first compound 0.000316 µM) 91.6% | viability, T/C (second compound 0.0316 µM, first compound 0.001 µM) 96% | viability, T/C (second compound 0.0316 µM, first compound 0.00316 µM) 107% | viability, T/C (second compound 0.0316 µM, first compound 0.01 µM) 94.6% | viability, T/C [5] 67.5% | viability, T/C [6] 35.3% | viability, T/C (second compound 0.1 µM, first compound 0.000316 µM) 100% | viability, T/C (second compound 0.1 µM, first compound 0.001 µM) 93.6% | viability, T/C (second compound 0.1 µM, first compound 0.00316 µM) 96.9% | viability, T/C (second compound 0.1 µM, first compound 0.01 µM) 91.1% | viability, T/C [7] 66.5% | viability, T/C [8] 36.5% | viability, T/C (second compound 0.316 µM, first compound 0.000316 µM) 98.6% | viability, T/C (second compound 0.316 µM, first compound 0.001 µM) 91.6% | viability, T/C (second compound 0.316 µM, first compound 0.00316 µM) 97.8% | viability, T/C (second compound 0.316 µM, first compound 0.01 µM) 76.8% | viability, T/C [9] 56.6% | viability, T/C [10] 39% | viability, T/C (second compound 1 µM, first compound 0.000316 µM) 92% | viability, T/C (second compound 1 µM, first compound 0.001 µM) 84.2% | viability, T/C (second compound 1 µM, first compound 0.00316 µM) 77.3% | viability, T/C (second compound 1 µM, first compound 0.01 µM) 64.4% | viability, T/C [11] 46% | viability, T/C [12] 30% | viability, T/C (second compound 3.16 µM, first compound 0.000316 µM) 63.9% | viability, T/C (second compound 3.16 µM, first compound 0.001 µM) 55.1% | viability, T/C (second compound 3.16 µM, first compound 0.00316 µM) 54.2% | viability, T/C (second compound 3.16 µM, first compound 0.01 µM) 43.5% | viability, T/C (second compound 3.16 µM, first compound 0.0316 µM) 34.5% | viability, T/C (second compound 3.16 µM, first compound 0.1 µM) 21.4% | viability, T/C (second compound 10 µM, first compound 0.000316 µM) 35.2% | viability, T/C (second compound 10 µM, first compound 0.001 µM) 32.2% | viability, T/C (second compound 10 µM, first compound 0.00316 µM) 30.9% | viability, T/C (second compound 10 µM, first compound 0.01 µM) 25.1% | viability, T/C (second compound 10 µM, first compound 0.0316 µM) 23.9% | viability, T/C (second compound 10 µM, first compound 0.1 µM) 14.4%
59.6 nM: IC50 [2]

CNC(=O)c1ccc(N2C(=S)N(c3ccc(C#N)c(C(F)(F)F)c3)C(=O)C2(C)C)cc1F
inactive: viability, T/C (compound 0.0316 µM) 104% and 102% (2×) and 89% | viability, T/C (compound 0.1 µM) 99.5% [middle of 4 runs] | viability, T/C (compound 0.316 µM) 104% [middle of 4 runs] | viability, T/C (compound 1 µM) 102% [middle of 4 runs] | viability, T/C (compound 3.16 µM) 105% [middle of 4 runs] | viability, T/C (compound 10 µM) 102% [middle of 4 runs]
> 10000 nM: IC50 (curve of compound)

C[C@@H](NC(=O)c1ncnc(N)c1Cl)c1ncc(C(=O)Nc2cc(C(F)(F)F)c(Cl)cn2)s1 + COc1c(OCCCN2CCOCC2)ccc2c3n(c(=NC(=O)c4cnc(N)nc4)nc12)CCN3
> 10000 nM: IC50 (curve of first compound, second compound 0.00316 µM) | IC50 (curve of first compound, second compound 0.01 µM) | IC50 [1]
< 31.6 nM: IC50 [3] | IC50 [4]
34.9 nM: IC50 [2]
inactive: viability, T/C (second compound 0.00316 µM, first compound 0.0316 µM) 99.2% | viability, T/C (second compound 0.00316 µM, first compound 0.1 µM) 99% | viability, T/C (second compound 0.00316 µM, first compound 0.316 µM) 102% | viability, T/C (second compound 0.00316 µM, first compound 1 µM) 107% | viability, T/C (second compound 0.00316 µM, first compound 3.16 µM) 114% | viability, T/C (second compound 0.00316 µM, first compound 10 µM) 111% | viability, T/C (second compound 0.01 µM, first compound 0.0316 µM) 92.4% | viability, T/C (second compound 0.01 µM, first compound 0.1 µM) 95.5% | viability, T/C (second compound 0.01 µM, first compound 0.316 µM) 88.2% | viability, T/C (second compound 0.01 µM, first compound 1 µM) 104% | viability, T/C (second compound 0.01 µM, first compound 3.16 µM) 104% | viability, T/C (second compound 0.01 µM, first compound 10 µM) 103% | viability, T/C [5] 73.6% | viability, T/C [6] 84.1% | viability, T/C (second compound 0.0316 µM, first compound 0.316 µM) 84.4% | viability, T/C (second compound 0.0316 µM, first compound 1 µM) 89.9% | viability, T/C (second compound 0.0316 µM, first compound 3.16 µM) 97.2% | viability, T/C (second compound 0.0316 µM, first compound 10 µM) 96.9% | viability, T/C [7] 54% | viability, T/C [8] 45.5% | viability, T/C (second compound 0.1 µM, first compound 0.316 µM) 46.5% | viability, T/C (second compound 0.1 µM, first compound 1 µM) 48% | viability, T/C (second compound 0.1 µM, first compound 3.16 µM) 50.5% | viability, T/C (second compound 0.1 µM, first compound 10 µM) 46.4% | viability, T/C [9] 17.9% | viability, T/C [10] 20.6% | viability, T/C (second compound 0.316 µM, first compound 0.316 µM) 19.9% | viability, T/C (second compound 0.316 µM, first compound 1 µM) 19.6% | viability, T/C (second compound 0.316 µM, first compound 3.16 µM) 23.1% | viability, T/C (second compound 0.316 µM, first compound 10 µM) 16.5% | viability, T/C [11] 11.7% | viability, T/C [12] 12.9% | viability, T/C (second compound 1 µM, first compound 0.316 µM) 13.2% | viability, T/C (second compound 1 µM, first compound 1 µM) 13.3% | viability, T/C (second compound 1 µM, first compound 3.16 µM) 14.5% | viability, T/C (second compound 1 µM, first compound 10 µM) 12.5%
